Test results: the NIST ThermoML archive (doi:10.1021/je9001416)

Legend:
[1] = refractive index (Na D-line) (dimensionless); xn = mol fraction of the nth substance listed; details: 303.15 K, 101 kPa, Liquid, Standard Abbe refractometry
[2] = xn = mol fraction of the nth substance listed; details: 303.15 K, 101 kPa, Liquid
[3] = excess molar enthalpy (molar enthalpy of mixing); xn = mol fraction of the nth substance listed; details: 303.15 K, 101 kPa, Liquid, Flow calorimetry

CC(C)CC(C)(C)C [2,2,4-trimethylpentane] + CC(C)OC(C)C
x2 = 0
Details	mass density [kg/m3]	refractive index
[1]	–	1.3865
[2]	684.1	–

CC(C)CC(C)(C)C [2,2,4-trimethylpentane] + CCO
Details	mass density, [2] [kg/m3]	refractive index, [1]
x2 = 0	684.1	1.3865
x2 = 0.0498	–	1.38633
x2 = 0.061	685.45	–
x2 = 0.0992	–	1.38632
x2 = 0.1201	687.2	–
x2 = 0.1997	–	1.38482
x2 = 0.2363	691.81	–
x2 = 0.2998	–	1.38404
x2 = 0.3467	697.27	–
x2 = 0.4005	–	1.38109
x2 = 0.453	703.74	–
x2 = 0.499	–	1.37746
x2 = 0.5525	711.14	–
x2 = 0.5999	–	1.37322
x2 = 0.6502	720.18	–
x2 = 0.7	–	1.36851
x2 = 0.7431	730.88	–
x2 = 0.8001	–	1.36386
x2 = 0.8322	744.05	–
x2 = 0.8999	–	1.36145
x2 = 0.9176	760.58	–
x2 = 0.9508	–	1.35789
x2 = 0.9599	770.78	–

CC(C)OC(C)C [diisopropyl ether] + CC(C)CC(C)(C)C
Details	excess molar enthalpy [kcal/mol]	mass density [kg/m3]	refractive index
[1], x1 = 0.0614	–	–	1.38505
[1], x1 = 0.1204	–	–	1.38372
[1], x1 = 0.2365	–	–	1.38115
[1], x1 = 0.3486	–	–	1.37862
[1], x1 = 0.4525	–	–	1.37619
[1], x1 = 0.5542	–	–	1.37383
[1], x1 = 0.6497	–	–	1.37172
[1], x1 = 0.7437	–	–	1.36963
[1], x1 = 0.8322	–	–	1.36774
[1], x1 = 0.9187	–	–	1.36596
[1], x1 = 0.9598	–	–	1.36512
[1], x1 = 1	–	–	1.36425
[2], x1 = 0.0614	–	685.5	–
[2], x1 = 0.1204	–	686.92	–
[2], x1 = 0.2365	–	689.82	–
[2], x1 = 0.3486	–	692.78	–
[2], x1 = 0.4525	–	695.6	–
[2], x1 = 0.5542	–	698.54	–
[2], x1 = 0.6497	–	701.45	–
[2], x1 = 0.7437	–	704.5	–
[2], x1 = 0.8322	–	707.61	–
[2], x1 = 0.9187	–	710.76	–
[2], x1 = 0.9598	–	712.33	–
[2], x1 = 1	–	713.78	–
[3], x1 = 0.0577	0.00932	–	–
[3], x1 = 0.1144	0.0178	–	–
[3], x1 = 0.1702	0.0253	–	–
[3], x1 = 0.2252	0.0316	–	–
[3], x1 = 0.2793	0.0368	–	–
[3], x1 = 0.3326	0.041	–	–
[3], x1 = 0.385	0.0441	–	–
[3], x1 = 0.4367	0.0461	–	–
[3], x1 = 0.4875	0.0471	–	–
[3], x1 = 0.5376	0.0472	–	–
[3], x1 = 0.587	0.0462	–	–
[3], x1 = 0.6356	0.0443	–	–
[3], x1 = 0.6835	0.0415	–	–
[3], x1 = 0.7307	0.038	–	–
[3], x1 = 0.7772	0.0337	–	–
[3], x1 = 0.823	0.0284	–	–
[3], x1 = 0.8682	0.0223	–	–
[3], x1 = 0.9128	0.0156	–	–
[3], x1 = 0.9567	0.00795	–	–

CC(C)OC(C)C [diisopropyl ether] + CCO
Details	excess molar enthalpy [kcal/mol]	mass density [kg/m3]	refractive index
[1], x1 = 0.0495	–	–	1.35854
[1], x1 = 0.0994	–	–	1.35989
[1], x1 = 0.2002	–	–	1.36147
[1], x1 = 0.2997	–	–	1.36232
[1], x1 = 0.4003	–	–	1.36325
[1], x1 = 0.5012	–	–	1.36309
[1], x1 = 0.6012	–	–	1.36285
[1], x1 = 0.7018	–	–	1.36225
[1], x1 = 0.804	–	–	1.36246
[1], x1 = 0.8996	–	–	1.36213
[1], x1 = 0.9505	–	–	1.36303
[1], x1 = 1	–	–	1.36425
[2], x1 = 0.0495	–	776.55	–
[2], x1 = 0.0994	–	771.45	–
[2], x1 = 0.2002	–	762.41	–
[2], x1 = 0.2997	–	754.04	–
[2], x1 = 0.4003	–	746.63	–
[2], x1 = 0.5012	–	740.01	–
[2], x1 = 0.6012	–	734.1	–
[2], x1 = 0.7018	–	728.75	–
[2], x1 = 0.804	–	723.6	–
[2], x1 = 0.8996	–	718.96	–
[2], x1 = 0.9505	–	716.37	–
[2], x1 = 1	–	713.78	–
[3], x1 = 0.0212	0.0024	–	–
[3], x1 = 0.0437	0.00524	–	–
[3], x1 = 0.0676	0.00902	–	–
[3], x1 = 0.0931	0.0136	–	–
[3], x1 = 0.1204	0.0189	–	–
[3], x1 = 0.1497	0.0251	–	–
[3], x1 = 0.1811	0.0321	–	–
[3], x1 = 0.215	0.0399	–	–
[3], x1 = 0.2516	0.0483	–	–
[3], x1 = 0.2912	0.0574	–	–
[3], x1 = 0.3343	0.0661	–	–
[3], x1 = 0.3813	0.0761	–	–
[3], x1 = 0.4328	0.086	–	–
[3], x1 = 0.4894	0.0958	–	–
[3], x1 = 0.5521	0.104	–	–
[3], x1 = 0.6217	0.11	–	–
[3], x1 = 0.6995	0.113	–	–
[3], x1 = 0.7871	0.105	–	–
[3], x1 = 0.8864	0.0783	–	–

CCO [ethanol] + CC(C)CC(C)(C)C
x1 = 1
Details	mass density [kg/m3]	refractive index
[1]	–	1.35733
[2]	781.99	–

CCO [ethanol] + CC(C)OC(C)C
x2 = 0
Details	mass density [kg/m3]	refractive index
[1]	–	1.35733
[2]	781.99	–
